Test [1] has as its target Recombinant human Cbl-b (aa 36-427) (Homo sapiens (Human), UniProt Q13191). Description: Cbl-b Biochemical Assay (TR-FRET). Conditions: read-out: TR-FRET hCbl-b IC50. The method, boiled down: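 IC50 from 4-parameter fit of % inhibition (DMSO max, reference-inhibitor min), duplicate ten-point series. Compound preincubated with 6 nM Cbl-b, then Src-Zap70 (1-2.5 nM)/0.5 mM ATP reaction 60 min RT; EDTA quench with labelled UBE2D2-Ub and streptavidin-terbium, 60 min, HTRF at 520 nm.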
In general terms: Time-resolved FRET reads energy transfer from a long-lived donor to a nearby acceptor.

Test [2] deals with Recombinant human c-Cbl (aa 47-435) (Homo sapiens (Human), UniProt P22681). Description: c-Cbl Biochemical Assay (TR-FRET). The method, boiled down: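 TR-FRET binding of UBE2D2-Ub-Bodipy (100 nM) to biotinylated c-Cbl (aa 47-435, 6 nM) via Streptavidin-Tb, measured after c-Cbl activation by Src-Zap70 with 0.5 mM ATP (60-90 min RT, 30 min compound preincubation). Ten-point half-log dilutions, 1% DMSO; IC50 by 4-parameter fit of normalized inhibition.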

The term IC50 denotes the concentration that inhibits the measured activity by half.

Sequence of Recombinant human Cbl-b (aa 36-427) (Q13191 36-427): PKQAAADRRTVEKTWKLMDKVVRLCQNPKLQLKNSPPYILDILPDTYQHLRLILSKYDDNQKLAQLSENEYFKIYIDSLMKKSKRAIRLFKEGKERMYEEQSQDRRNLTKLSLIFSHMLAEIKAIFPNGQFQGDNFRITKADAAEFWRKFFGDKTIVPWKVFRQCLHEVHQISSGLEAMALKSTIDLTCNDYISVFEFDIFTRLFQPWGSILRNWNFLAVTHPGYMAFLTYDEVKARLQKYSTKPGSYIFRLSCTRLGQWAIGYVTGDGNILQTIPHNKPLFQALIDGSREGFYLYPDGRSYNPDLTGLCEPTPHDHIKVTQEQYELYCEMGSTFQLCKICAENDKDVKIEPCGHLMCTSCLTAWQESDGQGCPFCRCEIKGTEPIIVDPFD
Sequence of Recombinant human c-Cbl (aa 47-435) (P22681 47-435): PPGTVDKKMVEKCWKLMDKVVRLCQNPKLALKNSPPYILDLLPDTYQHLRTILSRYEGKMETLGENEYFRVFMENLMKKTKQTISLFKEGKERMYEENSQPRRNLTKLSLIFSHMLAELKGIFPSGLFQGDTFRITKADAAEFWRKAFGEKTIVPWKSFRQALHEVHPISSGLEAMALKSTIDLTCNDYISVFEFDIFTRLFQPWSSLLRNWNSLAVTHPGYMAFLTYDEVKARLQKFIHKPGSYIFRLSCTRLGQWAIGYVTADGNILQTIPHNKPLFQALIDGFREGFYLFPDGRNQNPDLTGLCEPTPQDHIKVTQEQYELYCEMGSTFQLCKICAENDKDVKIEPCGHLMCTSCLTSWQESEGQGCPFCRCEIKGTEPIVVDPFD

Regarding `Cn1cnnc1-c1cc(C#N)ccc1-c1cc(C2CC2)nc(N2Cc3ccc(CNCC4(C)CCC4)cc3C2=O)c1` [ALP-1, 4-{2-Cyclopropyl-6-[6-({[(1-methylcyclobutyl)methyl]amino}methyl)-1-oxo-3H-isoindol-2-yl]pyridin-4-yl}-3-(4-methyl-1,2,4-triazol-3-yl)benzonitrile], the IC50 in test [1] and in test [2] was ≤ 200 nM throughout.
Take `Cn1cnnc1-c1cc(C#N)ccc1-c1cc(C2CC2)nc(N2Cc3ccc(CNC4CC4)cc3C2=O)c1` [ALQ-2, 4-(2-Cyclopropyl-6-{6-[(cyclopropylamino)methyl]-1-oxo-3H-isoindol-2-yl}pyridin-4-yl)-3-(4-methyl-1,2,4-triazol-3-yl)benzonitrile]: the IC50 in test [1] and in test [2] was ≤ 200 nM each time.
Turning to `Cn1cnnc1-c1cc(C#N)ccc1-c1cc(C2CC2)nc(N2Cc3c(F)cc(CNC4CC4)cc3C2=O)c1` [ALR-1, 4-(2-Cyclopropyl-6-{6-[(cyclopropylamino)methyl]-4-fluoro-1-oxo-3H-isoindol-2-yl}pyridin-4-yl)-3-(4-methyl-1,2,4-triazol-3-yl)benzonitrile], the IC50 in test [1] and in test [2] was ≤ 200 nM in each case.
As to `C[C@H]1CCCN(Cc2ccc3c(c2)C(=O)N(c2cc(-c4ccc(C#N)cc4-c4nncn4C)cc(C4CC4)n2)C3)C1` [ALS-1, 4-[2-Cyclopropyl-6-(6-{[(3S)-3-methylpiperidin-1-yl]methyl}-1-oxo-3H-isoindol-2-yl)pyridin-4-yl]-3-(4-methyl-1,2,4-triazol-3-yl)benzonitrile], the half-maximal inhibitory concentration (IC50) in test [1] and in test [2] was ≤ 200 nM each time.
For `COCC1(NCc2ccc3c(c2)C(=O)N(c2cc(-c4ccc(C#N)cc4-c4nncn4C)cc(C4CC4)n2)C3)CC1` [ALT-2, 4-{2-Cyclopropyl-6-[6-({[1-(methoxymethyl)cyclopropyl]amino}methyl)-1-oxo-3H-isoindol-2-yl]pyridin-4-yl}-3-(4-methyl-1,2,4-triazol-3-yl)benzonitrile], the concentration for half-maximal inhibition (IC50) in test [1] and in test [2] was ≤ 200 nM in each case.
Regarding `Cn1cnnc1-c1cc(C#N)ccc1-c1cc(C2CC2)nc(N2Cc3ccc(CN4CCC(F)(F)CC4)cc3C2=O)c1` [ALU-2, 4-(2-Cyclopropyl-6-{6-[(4,4-difluoropiperidin-1-yl)methyl]-1-oxo-3H-isoindol-2-yl}pyridin-4-yl)-3-(4-methyl-1,2,4-triazol-3-yl)benzonitrile], the IC50 in test [1] and in test [2] was ≤ 200 nM throughout.
Consider `COC(F)(F)CNCc1cc(F)c2c(c1)C(=O)N(c1cc(-c3ccc(C#N)cc3-c3nncn3C)cc(C3CC3)n1)C2` [ALV-4, 4-[2-Cyclopropyl-6-(6-{[(2,2-difluoro-2-methoxyethyl)amino]methyl}-4-fluoro-1-oxo-3H-isoindol-2-yl)pyridin-4-yl]-3-(4-methyl-1,2,4-triazol-3-yl)benzonitrile], for which the concentration for half-maximal inhibition (IC50) in test [1] and in test [2] was ≤ 200 nM throughout.
For the compound `Cn1cnnc1-c1cc(C#N)ccc1-c1cc(C2CC2)nc(N2Cc3c(F)cc(CNCC(F)(F)F)cc3C2=O)c1` [ALW-1, -[2-Cyclopropyl-6-(4-fluoro-1-oxo-6-{[(2,2,2-trifluoroethyl)amino]methyl}-3H-isoindol-2-yl)pyridin-4-yl]-3-(4-methyl-1,2,4-triazol-3-yl)benzonitrile], the half-inhibitory concentration (IC50) in test [1] and in test [2] was ≤ 200 nM throughout.
On to `Cn1cnnc1-c1cc(C#N)ccc1-c1cc(C2CC2)nc(N2Cc3c(cc(CO)c(F)c3F)C2=O)c1` [ALX-9, 4-{2-Cyclopropyl-6-[4,5-difluoro-6-(hydroxymethyl)-1-oxo-3H-isoindol-2-yl]pyridin-4-yl}-3-(4-methyl-1,2,4-triazol-3-yl)benzonitrile], for which the 50% inhibitory concentration (IC50) in test [1] and in test [2] was ≤ 200 nM each time.
With `Cn1cnnc1-c1cc(C#N)ccc1-c1cc(C2CC2)nc(N2Cc3c(cc(CNCCOC(F)(F)F)c(F)c3F)C2=O)c1` [ALY-2, 4-{2-Cyclopropyl-6-[4,5-difluoro-1-oxo-6-({[2-(trifluoromethoxy)ethyl]amino}methyl)-3H-isoindol-2-yl]pyridin-4-yl}-3-(4-methyl-1,2,4-triazol-3-yl)benzonitrile], the half-maximal inhibitory concentration (IC50) in test [1] and in test [2] was ≤ 200 nM in each case.
Regarding `CNCCNCc1ccc2c(c1)C(=O)N(c1cc(-c3ccc(C#N)cc3-c3nncn3C)cc(C3CC3)n1)C2` [ALZ-3, 4-{2-Cyclopropyl-6-[6-({[2-(methylamino)ethyl]amino}methyl)-1-oxo-3H-isoindol-2-yl]pyridin-4-yl}-3-(4-methyl-1,2,4-triazol-3-yl)benzonitrile], the half-maximal inhibitory concentration (IC50) in test [1] and in test [2] was ≤ 200 nM each time.
For `Cn1cnnc1-c1cc(C#N)ccc1-c1cc(C2CC2)nc(N2Cc3ccc(CNCC4(CO)CCC4)cc3C2=O)c1` [AMA-2, 4-(2-Cyclopropyl-6-{6-[({[1-(hydroxymethyl)cyclobutyl]methyl}amino)methyl]-1-oxo-3H-isoindol-2-yl}pyridin-4-yl)-3-(4-methyl-1,2,4-triazol-3-yl)benzonitrile], the IC50 in test [1] and in test [2] was ≤ 200 nM each time.
`CC(=O)NCCNCc1ccc2c(c1)C(=O)N(c1cc(-c3ccc(C#N)cc3-c3nncn3C)cc(C3CC3)n1)C2` [AMB-1, N-(2-{[(2-{4-[4-Cyano-2-(4-methyl-1,2,4-triazol-3-yl)phenyl]-6-cyclopropylpyridin-2-yl}-3-oxo-1H-isoindol-5-yl)methyl]amino}ethyl)acetamide]: the IC50 in test [1] and in test [2] was ≤ 200 nM each time.
With `Cn1cnnc1-c1cc(C#N)ccc1-c1cc(C2CC2)nc(N2Cc3c(F)cc(CNCC4CC4)cc3C2=O)c1` [AMC-2, 4-[2-Cyclopropyl-6-(6-{[(cyclopropylmethyl)amino]methyl}-4-fluoro-1-oxo-3H-isoindol-2-yl)pyridin-4-yl]-3-(4-methyl-1,2,4-triazol-3-yl)benzonitrile], the IC50 in test [1] and in test [2] was ≤ 200 nM throughout.
In the case of `CO[C@@H](C)[C@H](C)NCc1cc(F)c2c(c1)C(=O)N(c1cc(-c3ccc(C#N)cc3-c3nncn3C)cc(C3CC3)n1)C2` [AMD-2, 4-{2-Cyclopropyl-6-[4-fluoro-6-({[(2S,3S)-3-methoxybutan-2-yl]amino}methyl)-1-oxo-3H-isoindol-2-yl]pyridin-4-yl}-3-(4-methyl-1,2,4-triazol-3-yl)benzonitrile], the concentration for half-maximal inhibition (IC50) in test [1] and in test [2] was ≤ 200 nM throughout.
For `Cn1cnnc1-c1cc(C#N)ccc1-c1cc(C2CC2)nc(N2Cc3c(F)cc(CNCCC(F)F)cc3C2=O)c1` [AME-2, 4-[2-Cyclopropyl-6-(6-{[(3,3-difluoropropyl)amino]methyl}-4-fluoro-1-oxo-3H-isoindol-2-yl)pyridin-4-yl]-3-(4-methyl-1,2,4-triazol-3-yl)benzonitrile], the IC50 in test [1] and in test [2] was ≤ 200 nM throughout.
Take `CN(Cc1ccc2c(c1)C(=O)N(c1cc(-c3ccc(C#N)cc3-c3nncn3C)cc(C3CC3)n1)C2)CC1CCC1` [AMF-1, 4-[2-(6-{[(cyclobutylmethyl)(methyl)amino]methyl}-1-oxo-3H-isoindol-2-yl)-6-cyclopropylpyridin-4-yl]-3-(4-methyl-1,2,4-triazol-3-yl)benzonitrile]: the half-maximal inhibitory concentration (IC50) in test [1] and in test [2] was ≤ 200 nM throughout.

Values taken from US12325697B2 (Nimbus Clio, Inc., priority 2021, dated 2025).
